Data set [1] in a line: Drug concentration in plasma of mice of the B cell activation study. The class given is in vivo. The settings on record: C57BL/6, plasma; mouse, 5 mg/kg oral, 16 h after administration. On the procedure:
The animals of each group were administered, then were placed in CO2 for anesthesia at designated time points, blood samples were taken from […] via retro-orbital bleeding, and heparin was used for anticoagulation; 90 μL of whole blood was taken from mice of each group, and added to a 96 well culture plate, and anti-mouse IgD antibody (BIO-RAD, Cat #MCA4693) was added to each well to a final concentration of 0.01 μg/μL (respectively for each drug-treated group and anti-IgD antibody-inducted vehicle group); in addition, 90 μL of whole blood of mice in the vehicle group was taken and added to the 96-well culture plate, and PBS (phosphate buffer, GIBCO, Cat # C20012500BT) was added to each well to a final concentration of 0.01 μg/μL (namely, the vehicle control group); Each group was mixed well and incubated in a 37° C./5% CO2 incubator for 4 hours. In addition, the blood of mice in the drug-treated group was centrifuged to separate plasma for blood concentration analysis.

Data set [2] has as its target Phosphorylated BTK in Ramos cells (Homo sapiens (Human), UniProt Q06187). Put plainly: Determination of phosphorylated BTK in Ramos cells (BTK phospho-Y223 HTRF). The settings on record: Ramos cells stimulated with immunoglobulin M 10 μg/mL and hydrogen peroxide 3.3 mM, 10 minutes. The class given is cell-based. How it is done: Ramos cells were starved in PRMI 1640 medium with 1% FBS for 2 hours. The starved Ramos cells were diluted with Hank's balanced salt solution to 5.0×10^6 cells/ml, seeded in a 96-well plate with 20 μL/well (1.0×10^5 cells/well), and cultured in a 5% CO2, 37° C. cell incubator. […]
The 384 well plate incubated overnight in the constant temperature incubator was taken out to detect the luminescence signal using the Envision microwell plate reader at the […]. The reading value at 665 nm/615 nm of each well multiplied by 10^4 was used as the signal value of each well.
The average signal value of the wells supplemented with the mixed solution of human immunoglobulin M (final concentration was 10 μg/mL) and hydrogen peroxide (final concentration was 3.3 mM) without the test compound was regarded as the high value, and the average signal value of the wells without immunoglobulin M stimulation and without the test compound was regarded as the low value. According to the signal value in each well, the inhibition ratio (%) of each concentration of compounds was calculated, and the 205 model in XL-Fit 5.3 software (ID Business Solutions Limited) was used to obtain an IC50 value.
The inhibition ratio is calculated as follows: inhibition ratio (%)=100%−{(treating well for the test compound−negative control treating well)/(control treating well for anti-human immunoglobulin M−negative control treating well)}×100%, wherein, […]
A general note: TR-FRET usually uses a lanthanide donor and a delayed reading to cut background.

Data set [3] relates to ITP mice (anti-mouse CD41 antibodies). Briefly: Idiopathic thrombocytopenic purpura induced by anti-CD41 antibody in mice. The class given is in vivo. The settings on record: 8 hours after modeling, single oral dose. How it is done:
Male C57BL/6 mice were purchased from Shanghai Lingchang Biotechnology Co., Ltd. (certificate number 20180003011079, initial body weight of 18-20 grams), and were randomly grouped according to Table 4, with 8 mice in each group. […] When modeling, each mouse was intraperitoneally injected with 200 μL of PBS solution containing 2 μg of anti-mouse CD41 antibodies (BD, Cat #: 553487, Lot #: 7026765).
Eight hours and twenty-four hours after modeling, the whole blood was collected and placed in a centrifuge tube coated with 10% citrate-phosphate-dextrose-adenine (CPDA), and the level of platelets (PLT) in the whole blood was measured by an XT-2000i (SYSMEX) automatic blood analyzer (Shanghai Laboratory Animal Research Centre Sino-British SIPPR/B & K Lab Animal Ltd).
The average level of platelets in peripheral blood was analyzed with Graphpad statistical software by one way ANOVA followed by Fisher LSD multiple comparison test, and the p value was calculated, wherein *p<0.05 indicated a statistically significant difference compared with the vehicle control group, **p<0.01 indicated a statistically extremely significant difference compared with the vehicle control group, and ##p<0.01 indicated a statistically extremely significant difference compared with the normal group. […]

Chain of Phosphorylated BTK in Ramos cells (Q06187 whole entry): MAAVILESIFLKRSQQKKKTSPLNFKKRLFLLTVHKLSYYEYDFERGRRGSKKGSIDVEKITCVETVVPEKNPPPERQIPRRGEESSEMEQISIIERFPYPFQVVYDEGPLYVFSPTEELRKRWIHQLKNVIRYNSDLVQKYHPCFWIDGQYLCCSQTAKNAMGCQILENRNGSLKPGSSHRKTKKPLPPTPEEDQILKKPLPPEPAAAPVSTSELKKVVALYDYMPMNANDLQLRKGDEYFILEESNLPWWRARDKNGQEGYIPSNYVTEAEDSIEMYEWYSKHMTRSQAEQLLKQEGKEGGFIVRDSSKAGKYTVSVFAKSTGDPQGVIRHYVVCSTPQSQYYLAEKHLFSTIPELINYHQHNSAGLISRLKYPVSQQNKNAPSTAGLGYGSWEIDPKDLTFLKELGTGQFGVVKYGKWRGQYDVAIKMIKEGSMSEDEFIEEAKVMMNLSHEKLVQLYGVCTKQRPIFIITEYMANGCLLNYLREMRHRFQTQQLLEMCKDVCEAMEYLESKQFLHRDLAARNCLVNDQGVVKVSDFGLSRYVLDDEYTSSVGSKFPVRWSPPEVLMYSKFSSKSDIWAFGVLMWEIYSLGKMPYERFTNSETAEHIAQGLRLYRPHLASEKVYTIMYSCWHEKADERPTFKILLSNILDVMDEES

For orientation: IC50 means the concentration that gives 50% inhibition. Higher therefore signals a need for much substance. On to `C[C@H]1CN(C2COC2)C[C@H](C)N1c1ccc(Nc2cc(-c3ccnc(-n4ccn5c6c(cc5c4=O)CC(C)(C)C6)c3CO)cn(C)c2=O)nc1` [Compound 1, 2-(5-((5-((2S,6S)-2,6-dimethyl-4-(oxetan-3-yl)piperazin-1-yl)pyridin-2-yl)amino)-3′-(hydroxymethyl)-1-methyl-6-oxo-1,6-dihydro-[3,4′-bipyridin]-2′-yl)-7,7-dimethyl-7,8-dihydro-2H-cyclopenta[4,5]pyrrolo[1,2-a]pyrazin-1(6H)-one], for which the concentration at 16 h in data set [1] was determined as 6.27 ± 1.68 ng/mL. The same molecule showed a 50% inhibitory concentration (IC50) in data set [2] of 5 nM. Moreover, the minimum effective dose in data set [3] is 0.04 mg/kg.

The values above are taken from patent publication US11655254B2, “Substituted piperazines as BTK inhibitors” (HUTCHISON MEDIPHARMA LIMITED, priority 2020, dated 2023).
